Assay: recombinant UMI read abundance after kanamycin selection (control-corrected) (log10(CPM+1)); higher = more efficient recombination; extreme values may be limits of the assay; sequences stand for … in AGTGCAGAGAAAATCGGCCAGTTTTCTCTGCCTGCAGTCCGCATGCCGTGGGACCCCTTGGGTTCTAACCTGTTGCCTAGATTTATGCAGCGGACTGCCTTTCTCCCAAAGTGATAAACCGG…AGGTTGGTTTCACT; site = the 11-nt donor
How it was run: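 Each donor and donor-binding-loop pair was tracked by a 12-nt UMI on a plasmid carrying a promoterless kanamycin gene. With a second plasmid supplying a fixed target and T7-inducible IS621 bridge recombinase, the pool was plated in Escherichia coli on IPTG (0.07 mM) plus kanamycin or unselected. Sequencing of recombinant UMIs across the donor–target junction gave counts expressed as log10(CPM+1) after replicate averaging and control-derived scaling.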
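Also: IS621 bridge recombinase in Escherichia coli cells against a fixed T5 target plasmid.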

| Sequence | recombinant UMI read abundance (log10) |
| --- | --- |
| CAGTCGACATGGACCGGTTTTCCCGGTAATCCGTATTTGGG (site CGGTCGACTCC) | 0.0115 |
| CAGTCGACATGGACCGGTTTTCCCGGTAATCCGTATTTGGG (site CTGTCGACTCC) | 0.0261 |
| CAGTCGACATGGACCGGTTTTCCCGGTAATCCGTATTTGGG (site GAGTCGACTCC) | 0.0417 |
| CAGTCGACATGGACCGGTTTTCCCGGTAATCCGTATTTGGG (site TAGTCGACTCC) | 0.01 |
| CAGTCTACATGGACCGGTTTTCCCGGTAATCCGTATTTGGG (site CAGTCAACTCC) | 0.0237 |
| CAGTCTACATGGACCGGTTTTCCCGGTAATCCGTATTTGGG (site CAGTCCACTCC) | 0.0106 |
| CAGTCTACATGGACCGGTTTTCCCGGTAATCCGTATTTGGG (site CAGTCGACTCC) | 0.00653 |
| CAGTCTACATGGACCGGTTTTCCCGGTAATCCGTATTTGGG (site CAGTCTACTCC) | 0.0109 |
| CAGTTATCATGGACCGGTTTTCCCGGTAATCCGTATTTGTG (site CAGTTATCTCA) | 3.18 |
| CAGTTGGCATGGACCGGTTTTCCCGGTAATCCGTATTTGTG (site CAGTTGGCTCA) | 1.47 |
| CATAACGCATGGACCGGTTTTCCCGGTAATCCGTATTTGGG (site CATAACGCTCC) | 0.802 |
| CATAACGCATGGACCGGTTTTCCCGGTAATCCGTATTTGTG (site TGAGGGCCTGC) | 0 |
| CATAGCCCATGGACCGGTTTTCCCGGTAATCCGTATTTGCC (site CATAGCCCTGG) | 0 |
| CATAGGGCATGGACCGGTTTTCCCGGTAATCCGTATTTGTC (site CATAGGGCTGA) | 2.5 |
| CATATCCCATGGACCGGTTTTCCCGGTAATCCGTATTTGCG (site CATATCCCTCG) | 0.847 |
| CATATCTCATGGACCGGTTTTCCCGGTAATCCGTATTTGAC (site CATATCTCTGT) | 2.52 |
| CATATTCCATGGACCGGTTTTCCCGGTAATCCGTATTTGCT (site CATATTCCTAG) | 0 |
| CATCAGTCATGGACCGGTTTTCCCGGTAATCCGTATTTGAT (site CATCAGTCTAT) | 2.04 |
| CATCATGCATGGACCGGTTTTCCCGGTAATCCGTATTTGTT (site CATCATGCTAA) | 1.58 |
| CATCCGGCATGGACCGGTTTTCCCGGTAATCCGTATTTGTC (site CATCCGGCTGA) | 0.293 |
| CATCGTTCATGGACCGGTTTTCCCGGTAATCCGTATTTGCA (site CATCGTTCTTG) | 2.25 |
| CATCTCGCATGGACCGGTTTTCCCGGTAATCCGTATTTGCA (site CATCTCGCTTG) | 0.985 |
| CATCTGCCATGGACCGGTTTTCCCGGTAATCCGTATTTGCC (site CATCTGCCTGG) | 0 |
| CATGCAGCATGGACCGGTTTTCCCGGTAATCCGTATTTGAG (site CATGCAGCTCT) | 1.51 |
| CATGCCCCATGGACCGGTTTTCCCGGTAATCCGTATTTGGG (site CATGCCCCTCC) | 0.00831 |

| Sequence | recombinant UMI read abundance (log10) |
| --- | --- |
| CATGGAACATGGACCGGTTTTCCCGGTAATCCGTATTTGTT (site CATGGAACTAA) | 1.85 |
| CATGGAACATGGACCGGTTTTCCCGGTAATCCGTATTTGTT (site CCTGGAACTAA) | 0.00373 |
| CATGGAACATGGACCGGTTTTCCCGGTAATCCGTATTTGTT (site CGTGGAACTAA) | 0.0146 |
| CATGGAACATGGACCGGTTTTCCCGGTAATCCGTATTTGTT (site CTTGGAACTAA) | 0.00575 |
| CATGGACCATGGACCGGTTTTCCCGGTAATCCGTATTTGGG (site CATGGACCTCC) | 0.0171 |
| CATGTAACATGGACCGGTTTTCCCGGTAATCCGTATTTGGG (site CATGTAACTCC) | 0.209 |
| CATTAAACATGGACCGGTTTTCCCGGTAATCCGTATTTGCC (site CATTAAACTGG) | 1.51 |
| CATTACCCATGGACCGGTTTTCCCGGTAATCCGTATTTGCC (site CATTACCCTGG) | 0 |
| CATTAGACATGGACCGGTTTTCCCGGTAATCCGTATTTGAG (site CATTAGACTCT) | 1.89 |
| CATTAGACATGGACCGGTTTTCCCGGTAATCCGTATTTGAG (site CCTTAGACTCT) | 0.769 |
| CATTAGACATGGACCGGTTTTCCCGGTAATCCGTATTTGAG (site CGTTAGACTCT) | 0.492 |
| CATTAGACATGGACCGGTTTTCCCGGTAATCCGTATTTGAG (site CTTTAGACTCT) | 0.0129 |
| CATTAGGCATGGACCGGTTTTCCCGGTAATCCGTATTTGCT (site CATTAGGCTAG) | 1.54 |
| CATTATGCATGGACCGGTTTTCCCGGTAATCCGTATTTGGA (site AATTATGCTTC) | 0.0205 |
| CATTATGCATGGACCGGTTTTCCCGGTAATCCGTATTTGGA (site CATTATGCTTC) | 1.07 |
| CATTATGCATGGACCGGTTTTCCCGGTAATCCGTATTTGGA (site GATTATGCTTC) | 0.00887 |
| CATTATGCATGGACCGGTTTTCCCGGTAATCCGTATTTGGA (site TATTATGCTTC) | 0.208 |
| CATTCAGCATGGACCGGTTTTCCCGGTAATCCGTATTTGCA (site CATTCAGCTTG) | 1.05 |
| CATTCATCATGGACCGGTTTTCCCGGTAATCCGTATTTGCT (site CATTCATCTAG) | 1.4 |
| CATTCATCATGGACCGGTTTTCCCGGTAATCCGTATTTGCT (site CGATCATCTAG) | 0.633 |
| CATTCGCCATGGACCGGTTTTCCCGGTAATCCGTATTTGAG (site CATTCGCCTCT) | 0.00436 |
| CATTCGGCATGGACCGGTTTTCCCGGTAATCCGTATTTGCA (site CATTCGGCTTG) | 1.15 |
| CATTGAGCATGGACCGGTTTTCCCGGTAATCCGTATTTGTA (site CATTGAGCTTA) | 2.06 |
| CATTGCCCATGGACCGGTTTTCCCGGTAATCCGTATTTGAC (site CATTGCCCTGT) | 0.844 |
| CATTTGGCATGGACCGGTTTTCCCGGTAATCCGTATTTGCT (site CATTTGGCTAG) | 0 |

| Sequence | recombinant UMI read abundance (log10) |
| --- | --- |
| CATTTGGCATGGACCGGTTTTCCCGGTAATCCGTATTTGCT (site CCTTTGGCTAG) | 0 |
| CATTTGGCATGGACCGGTTTTCCCGGTAATCCGTATTTGCT (site CGTTTGGCTAG) | 0 |
| CATTTGGCATGGACCGGTTTTCCCGGTAATCCGTATTTGCT (site CTTTTGGCTAG) | 0.00821 |
| CATTTGGCATGGACCGGTTTTCCCGGTAATCCGTATTTGGA (site CAATTGGCTTC) | 0.313 |
| CATTTGGCATGGACCGGTTTTCCCGGTAATCCGTATTTGGA (site CACTTGGCTTC) | 0.438 |
| CATTTGGCATGGACCGGTTTTCCCGGTAATCCGTATTTGGA (site CAGTTGGCTTC) | 0.466 |
| CATTTGGCATGGACCGGTTTTCCCGGTAATCCGTATTTGGA (site CATTTGGCTTC) | 0.328 |
| CCAAAAGCATGGACCGGTTTTCCCGGTAATCCGTATTTGAT (site CCAAAAGCTAT) | 1.34 |
| CCAAAAGCATGGACCGGTTTTCCCGGTAATCCGTATTTGAT (site CCCAAAGCTAT) | 0 |
| CCAAAAGCATGGACCGGTTTTCCCGGTAATCCGTATTTGAT (site CCGAAAGCTAT) | 0 |
| CCAAAAGCATGGACCGGTTTTCCCGGTAATCCGTATTTGAT (site CCTAAAGCTAT) | 0 |
| CCAAAGACATGGACCGGTTTTCCCGGTAATCCGTATTTGCA (site CCAAAGACTTG) | 2.26 |
| CCAACTTCATGGACCGGTTTTCCCGGTAATCCGTATTTGAT (site CCAACTTCTAT) | 0 |
| CCAATATCATGGACCGGTTTTCCCGGTAATCCGTATTTGAG (site CCAATATCTCT) | 1.21 |
| CCAATCACATGGACCGGTTTTCCCGGTAATCCGTATTTGGG (site CCAATCACTCC) | 0.336 |
| CCAATTGCATGGACCGGTTTTCCCGGTAATCCGTATTTGAG (site CCAATTGCTCT) | 0.865 |
| CCACAGTCATGGACCGGTTTTCCCGGTAATCCGTATTTGTG (site CCACAGTCTCA) | 1.93 |
| CCACATCCATGGACCGGTTTTCCCGGTAATCCGTATTTGAC (site ACACATCCTGT) | 0 |
| CCACATCCATGGACCGGTTTTCCCGGTAATCCGTATTTGAC (site CCACATCCTGT) | 0 |
| CCACATCCATGGACCGGTTTTCCCGGTAATCCGTATTTGAC (site GCACATCCTGT) | 0 |
| CCACATCCATGGACCGGTTTTCCCGGTAATCCGTATTTGAC (site TCACATCCTGT) | 0 |
| CCACGTGCATGGACCGGTTTTCCCGGTAATCCGTATTTGAT (site CCAAGTGCTAT) | 0.0041 |
| CCACGTGCATGGACCGGTTTTCCCGGTAATCCGTATTTGAT (site CCACGTGCTAT) | 0.871 |
| CCACGTGCATGGACCGGTTTTCCCGGTAATCCGTATTTGAT (site CCAGGTGCTAT) | 0.0128 |
| CCACGTGCATGGACCGGTTTTCCCGGTAATCCGTATTTGAT (site CCATGTGCTAT) | 0.0143 |

From the supplement of paper PMC11208160
